In US9701689B2, “Substituted pyridines and pyridazines as CCR10 receptor inhibitors” (KYOWA HAKKO KIRIN CO., LTD., priority 2012, dated 2017):

Target: T1, human CCR10 (Homo sapiens, UniProt P46092)
T1 construct: expressed in transfected cells; host or cells: KJMGER8 cells (Namalwa cell-derived line), beta-estradiol-induced; hCCR10G16 cells
T1 sequence (P46092 1-362): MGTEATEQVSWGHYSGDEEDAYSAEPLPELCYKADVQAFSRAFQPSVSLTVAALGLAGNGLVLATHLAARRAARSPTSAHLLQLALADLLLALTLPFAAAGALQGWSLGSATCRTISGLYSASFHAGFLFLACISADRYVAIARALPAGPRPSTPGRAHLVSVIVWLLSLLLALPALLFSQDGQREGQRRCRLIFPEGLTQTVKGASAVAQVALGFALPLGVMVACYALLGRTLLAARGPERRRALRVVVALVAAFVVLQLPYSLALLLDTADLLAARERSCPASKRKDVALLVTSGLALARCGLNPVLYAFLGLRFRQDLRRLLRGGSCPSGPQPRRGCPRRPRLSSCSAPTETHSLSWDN
Experiment: CCR10 antagonistic effect: calcium assay of human CCR10 (CTACK-induced increase of intracellular calcium in hCCR10G16 cells)
Format: cell-based
Conditions: at a concentration of not more than 1000 nmol/L; human CCR10-expressing hCCR10G16 cells, 300 nmol/L CTACK added; read-out: inhibition of increase in the calcium ion concentration
Description: [Experimental Example 1] CCR10 Antagonistic Effect
(1) Preparation of Human CCR10-Inducible Expression Plasmid
A CCR10-inducible expression plasmid was prepared according to a known method [Analytical Biochemistry, 2006, vol. 400, page 163]. A DNA encoding human CCR10 was obtained by PCR. Using human chromosome DNA (100 ng; manufactured by Clontech) as a template, synthetic DNA having the sequences depicted in SEQ ID NOs: 1 and 2 as a human CCR10 cDNA specific primer, and Pyrobest DNA Polymerase (manufactured by TAKARA SHUZO CO. LTD.) as an enzyme, a DNA encoding human CCR10 was obtained by PCR. As a buffer for PCR, the buffer attached to the enzyme to be used, which was diluted 10-fold with deionized water, was used. Using Thermal Cycler DNA Engine (manufactured by MJ Research), PCR was performed by 35 cycles of reactions composed of an incubation at 94° C. for 30 sec, at an anneal temperature of 58° C. for 30 sec, and at 72° C. for 1 min after treating at 90° C. for 2 min.
The amplified PCR fragment was cleaved with HindIII and NotI, then a human CCR10 DNA fragment was recovered by the agarose gel electrophoresis method. The fragment was incorporated between the corresponding restriction enzyme sites (HindIII-NotI) of an inducible expression vector to construct a human CCR10-inducible expression plasmid.
Using a primer specific to the sequence of plasmid (synthetic DNA having the sequences shown in SEQ ID NOs: 3 and 4), the sequence of human CCR10 DNA region was determined. For the determination of the base sequence, DNA Sequencer 377 (manufactured by Perkin Elmer. Co.) and a reaction kit (ABI Prism (registered trade mark) BigDye (registered trade mark) Terminator Cycle Sequencing Ready Reaction kit: manufactured by Applied Biosystems) were used. The sequence of human CCR10 DNA was identical with the sequence (NM 016602) registered in GenBank.
(2) Preparation of Human CCR10 Expressing Cell for Calcium Assay
Cells for detecting signals from human CCR10 in calcium assay were prepared. According to a known method [Analytical.Biochemistry (Analy Biochem), 2006, vol. 400, page 163], human CCR10-inducible expressing cells whose host cell is KJMGER8 cell (Namalwa cell-derived cell line) were prepared. Human CCR10-inducible expression plasmid produced above and Gα16 expression plasmid were co-transfected into the KJMGER8 cells by the electroporation method [Cytotechnology, 1990, vol. 3, page 133], whereby the signals from human CCR10 could be detected by calcium assay (hereinafter to be referred to as hCCR10G16 cell). A Ga16 expression plasmid was produced by incorporating human Ga16 DNA into expression vector pAMoh (WO 03/087366). Expression of human CCR10 was induced by cultivating hCCR10G16 cells in the presence of 10 nmol/L β-estradiol (manufactured by Sigma Ltd.) for 24 hr.
(3) Calcium Assay of Human CCR10
Cells expressing human CCR10 induced by the above-mentioned method were suspended in RPMI1640 medium (manufactured by Invitrogen), and adjusted to a cell density of 2×10^6 cells/mL. The cells were blended with an equivalent volume of a loading buffer prepared according to the attached protocol of Fluo-3 calcium assay kit (manufactured by Molecular Devices Corporation), and incubated at 37° C. for several dozen minutes. This mixture was dispensed to a 384 well clear-bottom plate (manufactured by Corning Incorporated) at 40 μL/well. To this plate was added a solution of the test compound in dimethyl sulfoxide (DMSO), which was diluted 37-fold with RPMI1640 medium, at 5 μL/well, and the mixture was incubated at 37° C. for 30 min. 300 nmol/L human recombinant CTACK (manufactured by R&D Systems, Inc.) diluted with RPMI1640 medium containing 1 w/v % bovine serum albumin (manufactured by Sigma Ltd.) was added at 5 μL/well and, variation of intracellular calcium ion concentration for about 5 min after the addition was measured by a screening apparatus (FDSS; manufactured by Hamamatsu Photonics K.K.). […]

| Structure (SMILES) | inhibition at up to 1 µM [%] |
| --- | --- |
| Cc1cc(F)ccc1Nc1cc(S(N)(=O)=O)nnc1C(=O)N1CCC(c2ccc(F)cc2)CC1 [Compound 229, 5-(4-fluoro-2-methylphenylamino)-6-[4-(4-fluorophenyl)piperidine-1-carbonyl]pyridazine-3-sulfonamide] | ≥ 50 |
| Cc1cc(F)ccc1Nc1cc(S(=O)(=O)N2CCNCC2)ncc1C(=O)N1CCC(c2ccc(F)cc2)CC1 [Compound 9, [4-(4-fluoro-2-methylphenylamino)-6-(piperazin-1-ylsulfonyl)pyridin-3-yl][4-(4-fluorophenyl)piperidin-1-yl]methanone] | ≥ 50 |
| CNC(=O)[C@@H]1C[C@@H](O)CN1S(=O)(=O)c1cc(Nc2ccc(F)cc2C)c(C(=O)N2CCC(c3ccc(F)cc3)CC2)cn1 [Compound 141, (2S,4R)-1-{4-(4-fluoro-2-methylphenylamino)-5-[4-(4-fluorophenyl)piperidine-1-carbonyl]pyridin-2-ylsulfonyl}-4-hydroxy-N-methylpyrrolidine-2-carboxamide] | ≥ 50 |
| Cc1cc(F)ccc1Nc1cc(S(=O)(=O)NC2CCN(C)C2=O)ncc1C(=O)N1CCC(c2ccc(F)cc2)CC1 (centres unmarked) [Compound 8, 4-(4-fluoro-2-methylphenylamino)-5-[4-(4-fluorophenyl)piperidine-1-carbonyl]-N-(1-methyl-2-oxopyrrolidin-3-yl)pyridine-2-sulfonamide] | ≥ 50 |
| COc1ccc(NS(=O)(=O)c2ncc(C(=O)N3CCC(c4ccc(F)cc4)CC3)c(Nc3ccc(F)cc3C)c2Cl)cc1 [Compound 38, 3-chloro-4-(4-fluoro-2-methylphenylamino)-5-[4-(4-fluorophenyl)piperidine-1-carbonyl]-N-(4-methoxyphenyl)pyridine-2-sulfonamide] | ≥ 50 |
| COc1cc(Nc2c(C(=O)N3CCC(c4ccc(F)cc4)CC3)cnc(S(=O)(=O)Nc3ccon3)c2C)ccc1F [Compound 269, 4-(4-fluoro-3-methoxyphenylamino)-5-[4-(4-fluorophenyl)piperidine-1-carbonyl]-N-(isoxazol-3-yl)-3-methylpyridine-2-sulfonamide] | ≥ 50 |
| NS(=O)(=O)c1ncc(C(=O)N2CCC(c3ccc(F)cc3)CC2)c(Cc2ccccc2)c1Cl [Compound 212, 4-benzyl-3-chloro-5-[4-(4-fluorophenyl)piperidine-1-carbonyl]pyridine-2-sulfonamide] | ≥ 50 |
| Cc1cc(F)ccc1Nc1cc(S(=O)(=O)N2CCCC2C(N)=O)ncc1C(=O)N1CCC(c2ccc(F)cc2)CC1 (centres unmarked) [Compound 123, 1-{4-(4-fluoro-2-methylphenylamino)-5-[4-(4-fluorophenyl)piperidine-1-carbonyl]pyridin-2-ylsulfonyl}pyrrolidine-2-carboxamide] | ≥ 50 |
| Cc1cc(F)ccc1Nc1c(C(=O)N2CCC(c3ccc(F)cc3)CC2)cnc(S(=O)(=O)Nc2ccn(C)n2)c1Cl [Compound 39, 3-chloro-4-(4-fluoro-2-methylphenylamino)-5-[4-(4-fluorophenyl)piperidine-1-carbonyl]-N-(1-methyl-1H-pyrazol-3-yl)pyridine-2-sulfonamide] | ≥ 50 |
| Cc1ccc(Cl)c(Nc2cc(S(N)(=O)=O)ncc2C(=O)N2CCC(c3ccc(F)cc3)CC2)c1 [Compound 50, 4-(2-chloro-5-methylphenylamino)-5-[4-(4-fluorophenyl)piperidine-1-carbonyl]pyridine-2-sulfonamide] | ≥ 50 |
| Cc1ccc(Nc2cc(S(N)(=O)=O)ncc2C(=O)N2CCC(c3ccc(F)cc3)CC2)c(C)c1 [Compound 55, 4-(2,4-dimethylphenylamino)-5-[4-(4-fluorophenyl)piperidine-1-carbonyl]pyridine-2-sulfonamide] | ≥ 50 |
| Cc1c(S(=O)(=O)Nc2ccon2)ncc(C(=O)N2CCC(c3ccc(F)cc3)CC2)c1NCCN1CCOCC1 [Compound 224, 5-[4-(4-fluorophenyl)piperidine-1-carbonyl]-N-(isoxazol-3-yl)-3-methyl-4-(2-morpholinoethylamino)pyridine-2-sulfonamide] | ≥ 50 |
| Cc1cc(NS(=O)(=O)c2ncc(C(=O)N3CCC(c4ccc(F)cc4)CC3)c(Nc3ccc(F)cc3F)c2C)sn1 [Compound 316, 4-(2,4-difluorophenylamino)-5-[4-(4-fluorophenyl)piperidine-1-carbonyl]-3-methyl-N-(3-methylisothiazol-5-yl)pyridine-2-sulfonamide] | ≥ 50 |
| Cc1cc(F)ccc1Nc1cc(S(N)(=O)=O)ncc1C(=O)N1CCC(c2ccccc2)CC1 [Compound 48, 4-(4-fluoro-2-methylphenylamino)-5-(4-phenylpiperidine-1-carbonyl)pyridine-2-sulfonamide] | ≥ 50 |
| Cc1cc(F)ccc1Nc1c(C(=O)N2CCC(c3ccc(F)cc3)CC2)cnc(S(=O)(=O)O)c1Cl [Compound 24, 3-chloro-4-(4-fluoro-2-methylphenylamino)-5-[4-(4-fluorophenyl)piperidine-1-carbonyl]pyridine-2-sulfonic acid] | ≥ 50 |
| Cc1c(S(=O)(=O)Nc2ccon2)ncc(C(=O)N2CCC(c3ccc(F)cc3)CC2)c1Nc1cccc(Cl)c1F [Compound 265, 4-(3-chloro-2-fluorophenylamino)-5-[4-(4-fluorophenyl)piperidine-1-carbonyl]-N-(isoxazol-3-yl)-3-methylpyridine-2-sulfonamide] | ≥ 50 |
| NS(=O)(=O)c1cc(Nc2ccc(Cl)cc2)c(C(=O)N2CCC(c3ccc(F)cc3)CC2)cn1 [Compound 82, 4-(4-chlorophenylamino)-5-[4-(4-fluorophenyl)piperidine-1-carbonyl]pyridine-2-sulfonamide] | ≥ 50 |
| CCNC(=O)NS(=O)(=O)c1ncc(C(=O)N2CCC(c3ccc(F)cc3)CC2)c(Nc2ccccc2C)c1C [Compound 226, N-(ethylcarbamoyl)-5-[4-(4-fluorophenyl)piperidine-1-carbonyl]-3-methyl-4-(o-tolylamino)pyridine-2-sulfonamide] | ≥ 50 |
| Cc1cccc(Nc2cc(S(N)(=O)=O)ncc2C(=O)N2CCC(c3ccc(F)cc3)CC2)c1 [Compound 96, 5-[4-(4-fluorophenyl)piperidine-1-carbonyl]-4-(m-tolylamino)pyridine-2-sulfonamide] | ≥ 50 |
| NS(=O)(=O)c1ncc(C(=O)N2CCC(c3ccc(F)cc3)CC2)c(Nc2ccc(OC(F)F)cc2)c1Cl [Compound 312, 3-chloro-4-[4-(difluoromethoxy)phenylamino]-5-[4-(4-fluorophenyl)piperidine-1-carbonyl]pyridine-2-sulfonamide] | ≥ 50 |
